Reference: US8846719B2, “Isoxazolo-pyridine derivatives” (Roche Palo Alto LLC, priority 2007, dated 2014)

Target: human GABA A receptor α5β3γ2 (Homo sapiens (Human), UniProt P18507+P31644)
Test: [3H]flumazenil competition binding assay, human GABA A α5β3γ2 receptors expressed in HEK293 cells
Settings: human receptor; displacement of [3H]flumazenil (0.5 nM); means of two determinations; read-out: hKi GABAAa5
Outline: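 Ki values, each the mean of two runs, derive from displacement of [3H]flumazenil from human α5β3γ2 GABA A receptors transiently expressed in HEK293 membranes. Binding ran 1 h at 4° C in Krebs-tris, pH 7.5, before filter harvest and scintillation counting.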

Row | Structure (SMILES) | Ki [nM]
1 | Cc1onc(-c2ccc(F)cc2)c1COc1ccc(C(=O)NC2CCOCC2)cn1 [Example 109, 6-[3-(4-Fluoro-phenyl)-5-methyl-isoxazol-4-ylmethoxy]-N-(tetrahydro-pyran-4-yl)-nicotinamide] | 0.8
2 | COC(=O)c1ccc(OCc2c(-c3ccccn3)noc2C)nc1 [Example 271, 6-(5-Methyl-3-pyridin-2-yl-isoxazol-4-ylmethoxy)-nicotinic acid methyl ester] | 3.8
3 | Cc1onc(-c2cccc(F)c2)c1COc1ccc(C(=O)NC2CC2)cn1 [Example 92, N-Cyclopropyl-6-[3-(3-fluoro-phenyl)-5-methyl-isoxazol-4-ylmethoxy]-nicotinamide] | 41.3
4 | Cc1onc(-c2ccccn2)c1COc1ccc(C(=O)NCCO)cn1 [Example 284, (2-Hydroxy-ethyl)-6-(5-methyl-3-pyridin-2-yl-isoxazol-4-ylmethoxy)-nicotinamide] | 0.5
5 | Cc1onc(-c2ccccc2)c1COc1ccc(C(=O)N(C)C2CCOCC2)cn1 [Example 50, N-Methyl-6-(5-methyl-3-phenyl-isoxazol-4-ylmethoxy)-N-(tetrahydro-pyran-4-yl)-nicotinamide] | 20.2
6 | Cc1onc(-c2ccccc2)c1COc1ccc(C(=O)NC2CCCN(CC(=O)NCCO)C2)cn1 (centres unmarked) [Example 45, N-{1-[(2-Hydroxy-ethylcarbamoyl)-methyl]-piperidin-3-yl}-6-(5-methyl-3-phenyl-isoxazol-4-ylmethoxy)-nicotinamide] | 8.4
7 | CCNC(=O)c1ccc(OCc2c(-c3ccc(F)cn3)noc2C)nc1 [Example 297, Ethyl-6-[3-(5-fluoro-pyridin-2-yl)-5-methyl-isoxazol-4-ylmethoxy]-nicotinamide] | 0.5
8 | CC(C)NC(=O)c1ccc(OCc2c(-c3ccccc3)noc2C(F)(F)F)nc1 [Example 133, N-Isopropyl-6-(3-phenyl-5-trifluoromethyl-isoxazol-4-ylmethoxy)-nicotinamide] | 41.6
9 | Cc1onc(-c2ccc(F)cc2)c1COc1ccc(C(=O)N2CCOCC2)cn1 [Example 110, {6-[3-(4-Fluoro-phenyl)-5-methyl-isoxazol-4-ylmethoxy]-pyridin-3-yl}-morpholin-4-yl-methanone] | 13
10 | Cc1onc(-c2ccc(Cl)cn2)c1COc1ccc(C(=O)NC(C)C)cn1 [Example 302, 6-[3-(5-Chloro-pyridin-2-yl)-5-methyl-isoxazol-4-ylmethoxy]-isopropyl-nicotinamide] | 0.3
11 | Cc1onc(-c2ccccc2)c1COc1ccc(C(=O)NCc2nc(C3CC3)no2)cn1 [Example 19, N-(3-Cyclopropyl-[1,2,4]oxadiazol-5-ylmethyl)-6-(5-methyl-3-phenyl-isoxazol-4-ylmethoxy)-nicotinamide] | 13.1
12 | Cc1onc(-c2ccc(Cl)cc2)c1COc1ccc(C(=O)NC(C)C)cn1 [Example 119, 6-[3-(4-Chloro-phenyl)-5-methyl-isoxazol-4-ylmethoxy]-N-isopropyl-nicotinamide] | 0.7
13 | CCN1CCC(NC(=O)c2ccc(OCc3c(-c4ccccc4)noc3C)nc2)CC1 [Example 35, N-(1-Ethyl-piperidin-4-yl)-6-(5-methyl-3-phenyl-isoxazol-4-ylmethoxy)-nicotinamide] | 9.4
14 | CCOC(=O)c1ccc(OCc2c(-c3ccccc3)noc2C)nc1C [Example 72, 2-Methyl-6-(5-methyl-3-phenyl-isoxazol-4-ylmethoxy)-nicotinic acid ethyl ester] | 19.3
15 | Cc1onc(-c2ccc(F)cc2)c1CNc1ccc(C(=O)NC(C)C)cn1 [Example 175, 6-{[3-(4-Fluoro-phenyl)-5-methyl-isoxazol-4-ylmethyl]-amino}-N-isopropyl-nicotinamide] | 3.7
16 | Cc1onc(-c2ccccc2)c1COc1ccc(C(=O)NC2CCS(=O)(=O)C2)cn1 (centres unmarked) [Example 185, N-(1,1-Dioxo-tetrahydro-thiophen-3-yl)-6-(5-methyl-3-phenyl-isoxazol-4-ylmethoxy)-nicotinamide] | 4.5
17 | Cc1onc(-c2ccccc2)c1COc1ccc([N+](=O)[O-])cn1 [Example 6, 2-(5-Methyl-3-phenyl-isoxazol-4-ylmethoxy)-5-nitro-pyridine] | 22.2
18 | Cc1onc(-c2ccccc2)c1COc1ccc(C(=O)Nc2ccc(F)cc2)cn1 [Example 49, N-(4-Fluoro-phenyl)-6-(5-methyl-3-phenyl-isoxazol-4-ylmethoxy)-nicotinamide] | 12.1
19 | COC(=O)c1ccc(OCc2c(-c3ccccc3)noc2C(F)(F)F)nc1 [Example 128, 6-(3-Phenyl-5-trifluoromethyl-isoxazol-4-ylmethoxy)-nicotinic acid methyl ester] | 88.5
20 | Cc1onc(-c2ccncc2)c1COc1ccc(C(=O)NCC2CC2)cn1 [Example 147, N-Cyclopropylmethyl-6-(5-methyl-3-pyridin-4-yl-isoxazol-4-ylmethoxy)-nicotinamide] | 4.1
21 | Cc1cc(C(=O)NC2CCOCC2)cnc1OCc1c(-c2ccccc2)noc1C [Example 66, 5-Methyl-6-(5-methyl-3-phenyl-isoxazol-4-ylmethoxy)-N-(tetrahydro-pyran-4-yl)-nicotinamide] | 1.4
22 | Cc1onc(-c2ccccc2)c1COc1ccc(C(=O)NCc2nc(C#N)cs2)cn1 [Example 21, N-(4-Cyano-thiazol-2-ylmethyl)-6-(5-methyl-3-phenyl-isoxazol-4-ylmethoxy)-nicotinamide] | 2.8
23 | Cc1onc(-c2ccccc2)c1COc1ccc(C(=O)NC2CCCN(C(=O)OC(C)(C)C)C2)cn1 (centres unmarked) [Example 38, 3-{[6-(5-Methyl-3-phenyl-isoxazol-4-ylmethoxy)-pyridine-3-carbonyl]-amino}-piperidine-1-carboxylic acid tert-butyl ester] | 43.5
24 | CNC(=O)c1ccc(OCc2c(-c3ccccc3)noc2C(F)(F)F)nc1 [Example 129, N-Methyl-6-(3-phenyl-5-trifluoromethyl-isoxazol-4-ylmethoxy)-nicotinamide] | 24.3
25 | Cc1onc(-c2ccccc2F)c1COc1ccc(C(=O)NCC(F)(F)F)cn1 [Example 84, 6-[3-(2-Fluoro-phenyl)-5-methyl-isoxazol-4-ylmethoxy]-N-(2,2,2-trifluoro-ethyl)-nicotinamide] | 4.5
26 | O=C(NCCO)c1ccc(OCc2c(-c3ccccc3)noc2C(F)(F)F)nc1 [Example 131, N-(2-Hydroxy-ethyl)-6-(3-phenyl-5-trifluoromethyl-isoxazol-4-ylmethoxy)-nicotinamide] | 34
27 | Cc1onc(-c2ccncc2)c1COc1ccc(C(=O)N2CCSCC2)cn1 [Example 152, [6-(5-Methyl-3-pyridin-4-yl-isoxazol-4-ylmethoxy)-pyridin-3-yl]-thiomorpholin-4-yl-methanone] | 39.7

Results, then the molecule that gave them:

Row | Ki [nM] | Structure (SMILES)
28 | 8.4 | Cc1onc(-c2ccccc2)c1COc1ccc(C(=O)NCCNC(=O)OC(C)(C)C)cn1 [Example 217, (2-{[6-(5-Methyl-3-phenyl-isoxazol-4-ylmethoxy)-pyridine-3-carbonyl]-amino}-ethyl)-carbamic acid tert-butyl ester]
29 | 12.4 | O=C(NC1CC1)c1ccc(OCc2conc2-c2ccc(Cl)cc2)nc1 [Example 343, 6-[3-(4-Chloro-phenyl)-isoxazol-4-ylmethoxy]-N-cyclopropyl-nicotinamide]
30 | 10.7 | C[C@H](CO)NC(=O)c1ccc(OCc2conc2-c2ccc(Cl)cc2)nc1 [Example 354, 6-[3-(4-Chloro-phenyl)-isoxazol-4-ylmethoxy]-N—((R)-2-hydroxy-1-methyl-ethyl)-nicotinamide]
31 | 17.7 | CSc1ccc(OCc2c(-c3ccccc3)noc2C)nc1 [Example 247, 2-(5-Methyl-3-phenyl-isoxazol-4-ylmethoxy)-5-methylsulfanyl-pyridine]
32 | 19.4 | O=C(NC1CCS(=O)(=O)C1)c1ccc(OCc2conc2-c2ccc(F)cc2)nc1 (centres unmarked) [Example 340, N-(1,1-Dioxo-tetrahydro-1,6-thiophen-3-yl)-6-[3-(4-fluoro-phenyl)-isoxazol-4-ylmethoxy]-nicotinamide]
33 | 9.5 | C[C@@H](O)CNC(=O)c1ccc(OCc2conc2-c2ccc(F)cc2)nc1 [Example 337, 6-[3-(4-Fluoro-phenyl)-isoxazol-4-ylmethoxy]-N—((R)-2-hydroxy-propyl)-nicotinamide]
34 | 1.6 | Cc1onc(-c2ccccc2)c1COc1ccc(C(=O)N[C@H]2CCOC2)cn1 [Example 202, 6-(5-Methyl-3-phenyl-isoxazol-4-ylmethoxy)-N—(S)-tetrahydro-furan-3-yl-nicotinamide]
35 | 11.3 | COC(=O)c1ccc(OCc2c(-c3ccncn3)noc2C)nc1 [Example 312, 6-(5-Methyl-3-pyrimidin-4-yl-isoxazol-4-ylmethoxy)-nicotinic acid methyl ester]
36 | 7.7 | Cc1onc(-c2ccccc2)c1COc1ccc(C(=O)NCC(C)(C)CO)cn1 [Example 188, N-(3-Hydroxy-2,2-dimethyl-propyl)-6-(5-methyl-3-phenyl-isoxazol-4-ylmethoxy)-nicotinamide]
37 | 6 | Cc1onc(-c2ccncn2)c1COc1ccc(C(=O)NCCO)cn1 [Example 320, N-(2-Hydroxy-ethyl)-6-(5-methyl-3-pyrimidin-4-yl-isoxazol-4-ylmethoxy)-nicotinamide]
38 | 15.1 | O=C(NCC(F)(F)F)c1ccc(OCc2conc2-c2ccc(Cl)cc2)nc1 [Example 342, 6-[3-(4-Chloro-phenyl)-isoxazol-4-ylmethoxy]-N-(2,2,2-trifluoro-ethyl)-nicotinamide]
39 | 1 | Cc1ccc(-c2noc(C)c2COc2ccc(C(=O)NC(C)C)cn2)cc1 [Example 252, N-Isopropyl-6-(5-methyl-3-p-tolyl-isoxazol-4-ylmethoxy)-nicotinamide]
40 | 41.9 | Cc1onc(-c2ccccc2)c1COc1ccc(C(=O)N2CCC[C@H]2CO)cn1 [Example 224]
41 | 40.7 | COCCNC(=O)c1ccc(OCc2conc2-c2ccc(F)cc2)nc1 [Example 336, 6-[3-(4-Fluoro-phenyl)-isoxazol-4-ylmethoxy]-N-(2-methoxy-ethyl)-nicotinamide]
